Activity calls are given as the source filed them. The rule behind the calls is not given here.
How the values were obtained:
[1] = Inhibition of hedgehog signaling pathway in mouse NIH/3T3 Light2 cells by Gli-luciferase reporter gene assay; format: cell-based; details: NIH3T3
[2] = test system: Medulloblastoma cell; experiment: Antiproliferative activity against Ptch+/- and p53-/- mouse medulloblastoma cells after 36 hrs by Brdu incorporation assay; format: functional, cell-based
[3] = species: Mus musculus; experiment: Potency index, ratio of vismodegib IC50 to compound IC50 for hedgehog signaling pathway in mouse NIH/3T3 Light2 cells; format: cell-based
[4] = test system: Medulloblastoma cell; experiment: Antitumor activity against Ptch+/- and p53-/- mouse medulloblastoma cells allografted in athymic nude mouse assessed as tumor growth inhibition at 50 mg/kg, po bid administered daily via gavage for 13 days; format: functional, organism-based
[5] = test system: Medulloblastoma cell; experiment: Antitumor activity against Ptch+/- and p53-/- mouse medulloblastoma cells allografted in athymic nude mouse assessed as tumor growth inhibition at 100 mg/kg, po qd administered daily via gavage for 13 days; format: functional, organism-based
[6] = AUC (0 to infinity) in Sprague-Dawley rat at 2 mg/kg, iv administered as single dose; format: ADME, organism-based; design: dose 2 mg/kg, time infinity, route intravenous; details: in vivo
[7] = Clearance in Sprague-Dawley rat at 2 mg/kg, iv administered as single dose; format: ADME, organism-based; details: in vivo
[8] = Volume of distribution at steady state in Sprague-Dawley rat at 2 mg/kg, iv administered as single dose; format: ADME, organism-based; details: in vivo, read-out: Vdss
[9] = Half life in Sprague-Dawley rat at 2 mg/kg, iv administered as single dose; format: ADME, organism-based; details: in vivo
[10] = AUC (0 to infinity) in Sprague-Dawley rat at 10 mg/kg, po administered as single dose; format: ADME, organism-based; design: dose 10 mg/kg, time infinity, route oral; details: in vivo
[11] = Cmax in Sprague-Dawley rat at 10 mg/kg, po administered as single dose; format: ADME, organism-based; design: dose 10 mg/kg, route oral; details: in vivo
[12] = Tmax in Sprague-Dawley rat at 10 mg/kg, po administered as single dose; format: ADME, organism-based; details: in vivo
[13] = Oral bioavailability in Sprague-Dawley rat at 10 mg/kg administered as single dose; format: ADME, organism-based; details: in vivo

SMILES	IC50 [1]	also measured
Cn1nccc1-c1nnc(N2CC(NC(=O)c3ccc(F)cc3C(F)(F)F)C2)c2ccccc12	> 1 µM	
Cn1nccc1-c1nnc(N2CC3(CN(C(=O)c4ccc(F)cc4C(F)(F)F)C3)C2)c2ccccc12	0.442 µM	
Cc1ccc(-c2nnc(N3CC[C@H](NC(=O)c4ccc(F)cc4C(F)(F)F)C3)c3ccccc23)cc1	> 0.1 µM	
O=C(N[C@H]1CCN(c2nnc(-c3ccc(CO)cc3)c3ccccc23)C1)c1ccc(F)cc1C(F)(F)F	> 0.1 µM	
Cn1nccc1Nc1nnc(N2CCC(NC(=O)c3ccc(F)cc3C(F)(F)F)C2)c2ccccc12 (racemic)	> 0.1 µM	
N#Cc1ccc(-c2nnc(N3CCC(NC(=O)c4ccc(F)cc4C(F)(F)F)C3)c3ccccc23)cc1 (racemic)	0.014 µM	
Cn1nccc1-c1nnc(N2CCCC(NC(=O)c3ccc(F)cc3C(F)(F)F)C2)c2ccccc12 (racemic)	> 1 µM	
Cn1cc(-c2nnc(N3CCC(NC(=O)c4ccc(F)cc4C(F)(F)F)C3)c3ccccc23)cn1 (racemic)	> 0.1 µM	
Cn1nccc1-c1nnc(NC2CCN(C(=O)c3ccc(F)cc3C(F)(F)F)C2)c2ccccc12 (racemic)	> 1 µM	
CN(C(=O)c1ccc(F)cc1C(F)(F)F)C1CCCN(c2nnc(-c3ccnn3C)c3ccccc23)C1 (racemic)	> 1 µM	
O=C(NC1CCN(c2nnc(-c3ccc(Cl)cc3)c3ccccc23)C1)c1ccc(F)cc1C(F)(F)F (racemic)	0.0109 µM	
O=C(NC1CCN(c2nnc(NCc3ccccc3)c3ccccc23)C1)c1ccc(F)cc1C(F)(F)F (racemic)	> 0.1 µM	

Continued, in another order:

IC50 [1]	SMILES	also measured
0.00116 µM	Cc1ccc(-c2nnc(N3CC[C@@H](NC(=O)c4ccc(F)cc4C(F)(F)F)C3)c3ccccc23)cc1	IC50 [2]: 0.0201 µM
0.00017 µM	O=C(N[C@@H]1CCN(c2nnc(-c3ccc(CO)cc3)c3ccccc23)C1)c1ccc(F)cc1C(F)(F)F	IC50 [2]: 0.0246 µM; Ratio IC50 [3]: 23; TGI [4]: Active; TGI [5]: Active; AUC(0-inf) [6]: 0.88 µM·h; clearance [7]: 74.7 mL/min/kg; Vd [8]: 1.47 L/kg; half-life [9]: 19.2 min; AUC(0-inf) [10]: 0.33 µM·h; Cmax [11]: 480 nM; Tmax [12]: 15 min; bioavailability [13]: 7.4%
0.00651 µM	O=C(NC1CCN(c2nnc(-c3ccccc3Cl)c3ccccc23)C1)c1ccc(F)cc1C(F)(F)F (racemic)	
0.00343 µM	O=C(NC1CCN(c2nnc(-c3ccccc3)c3ccccc23)C1)c1ccc(F)cc1C(F)(F)F (racemic)	
0.00088 µM	Cc1ccc(-c2nnc(N3CCC(NC(=O)c4ccc(F)cc4C(F)(F)F)C3)c3ccccc23)cc1 (racemic)	
0.00475 µM	Cn1nccc1-c1nnc(N2CCC(NC(=O)c3ccc(F)cc3C(F)(F)F)C2)c2ccccc12 (racemic)	
0.0107 µM	O=C(NC1CCN(c2nnc(-c3ccncc3)c3ccccc23)C1)c1ccc(F)cc1C(F)(F)F (racemic)	
0.00293 µM	Cc1ccc(-c2nnc(N3CCC(N(C)C(=O)c4ccc(F)cc4C(F)(F)F)C3)c3ccccc23)cc1 (racemic)	
0.00095 µM	O=C(NC1CCN(c2nnc(-c3ccc(CO)cc3)c3ccccc23)C1)c1ccc(F)cc1C(F)(F)F (racemic)	
0.00136 µM	CN(C(=O)c1ccc(F)cc1C(F)(F)F)C1CCN(c2nnc(-c3ccc(CO)cc3)c3ccccc23)C1 (racemic)	
0.0086 µM	CC(=O)c1ccc(-c2nnc(N3CCC(NC(=O)c4ccc(F)cc4C(F)(F)F)C3)c3ccccc23)cc1 (racemic)	
0.0063 µM	CN(C(=O)c1ccc(F)cc1C(F)(F)F)C1CCN(c2nnc(-c3ccnn3C)c3ccccc23)CC1 [TALADEGIB]	IC50 [2]: 0.0435 µM; TGI [4]: Active
0.0023 µM	CS(=O)(=O)c1ccc(C(=O)Nc2ccc(Cl)c(-c3ccccn3)c2)c(Cl)c1 [VISMODEGIB]	IC50 [2]: 0.0304 µM
